According to patent US10266497B2 (ABIDE THERAPEUTICS, INC., priority 2017, dated 2019):

Tests used:
[1] = biological target: T1, MAGL (Mus musculus, UniProt O35678); assay: Mouse brain proteomes from inhibitor treated mice (oral gavage, sacrificed 4 h after administration); type: in vivo; parameters: mouse brain membrane fraction for mouse assays; from tissue; host or cells: mouse brain (membrane fraction in vitro; brain proteomes of treated C57Bl/6J mice in vivo); settings: 5 mg/kg oral gavage, brain proteome 4 h after administration, read-out: MAGL % inh. 5 mg/kg (mouse)
T1 sequence (O35678 1-303): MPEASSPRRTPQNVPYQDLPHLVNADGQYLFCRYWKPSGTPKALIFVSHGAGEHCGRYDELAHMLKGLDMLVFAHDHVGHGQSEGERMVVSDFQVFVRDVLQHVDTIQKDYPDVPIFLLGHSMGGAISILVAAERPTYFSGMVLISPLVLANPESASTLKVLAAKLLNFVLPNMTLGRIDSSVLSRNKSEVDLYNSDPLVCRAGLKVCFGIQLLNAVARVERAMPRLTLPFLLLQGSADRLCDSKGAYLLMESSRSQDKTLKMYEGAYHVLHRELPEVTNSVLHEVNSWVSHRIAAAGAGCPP

[2] = biological target: T1, MAGL; assay: In vitro competitive activity-based protein profiling, MAGL, mouse; settings: read-out: MAGL % inh. 1 μM (mouse)
[3] = biological target: T2, MAGL (Homo sapiens, UniProt Q99685); assay: In vitro competitive activity-based protein profiling, MAGL, human; settings: read-out: MAGL % inh. 1 μM (human)
T2 sequence (Q99685 1-303): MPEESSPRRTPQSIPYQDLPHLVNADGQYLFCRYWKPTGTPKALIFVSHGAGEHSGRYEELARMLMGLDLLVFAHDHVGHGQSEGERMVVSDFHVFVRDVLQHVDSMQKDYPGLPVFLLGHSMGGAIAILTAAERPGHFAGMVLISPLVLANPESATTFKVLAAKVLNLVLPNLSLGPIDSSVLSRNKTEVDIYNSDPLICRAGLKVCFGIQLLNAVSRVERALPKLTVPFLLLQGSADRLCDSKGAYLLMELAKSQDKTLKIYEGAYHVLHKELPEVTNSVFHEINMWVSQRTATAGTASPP

inhibition at 5 mg/kg [1]	inhibition at 1 µM [2]	inhibition at 1 µM [3]	SMILES
0 to 25%	> 75%	> 75%	O=C(O)c1ccn(C(=O)N2CCC(Oc3cc(N4CCCC4)cc(C(F)(F)F)c3)CC2)n1 [Example 308, 1-(4-(3-(pyrrolidin-1-yl)-5-(trifluoromethyl)phenoxy)piperidine-1-carbonyl)-1H-pyrazole-3-carboxylic acid]
0 to 25%	> 75%	> 75%	C[C@H]1CN(Cc2cccc(Oc3ccc(Cl)cc3)c2)CCN1C(=O)n1ccc(C(=O)O)n1 [Example 311, (S)-1-(4-(3-(4-chlorophenoxy)benzyl)-2-methylpiperazine-1-carbonyl)-1H-pyrazole-3-carboxylic acid]
0 to 25%	> 75%	> 75%	C[C@@H]1CN(Cc2ccc(C(F)(F)F)cc2N2CCCC2)CCN1C(=O)n1ccc(C(=O)O)n1 [Example 327, (R)-1-(2-methyl-4-(2-(pyrrolidin-1-yl)-4-(trifluoromethyl)benzyl)piperazine-1-carbonyl)-1H-pyrazole-3-carboxylic acid]
0 to 25%	> 75%	> 75%	C[C@H]1CN(Cc2ccc(C(F)(F)F)cc2N2CCCC2)CCN1C(=O)n1ccc(C(=O)O)n1 [Example 328, (S)-1-(2-methyl-4-(2-(pyrrolidin-1-yl)-4-(trifluoromethyl)benzyl)piperazine-1-carbonyl)-1H-pyrazole-3-carboxylic acid]
0 to 25%	> 75%	> 75%	O=C(O)c1ccn(C(=O)N2CCC3(CCN(Cc4cc(Cl)cc(Cl)c4Cl)C3)CC2)n1 [Example 337, 1-(2-(2,3,5-trichlorobenzyl)-2,8-diazaspiro[4.5]decane-8-carbonyl)-1H-pyrazole-3-carboxylic acid]
0 to 25%	> 75%	> 75%	C[C@H]1CN(Cc2cc(F)cc(Oc3ccc(Cl)cc3)c2)CCN1C(=O)n1ccc(C(=O)O)n1 [Example 347, (S)-1-(4-(3-(4-chlorophenoxy)-5-fluorobenzyl)-2-methylpiperazine-1-carbonyl)-1H-pyrazole-3-carboxylic acid]
0 to 25%	> 75%	> 75%	C[C@@H]1CC[C@@H](C)N1c1cc(C(F)(F)F)ccc1CN1CCN(C(=O)n2ccc(C(=O)O)n2)CC1 [Example 359, 1-(4-(2-((2R,5R)-2,5-dimethylpyrrolidin-1-yl)-4-(trifluoromethyl)benzyl)piperazine-1-carbonyl)-1H-pyrazole-3-carboxylic acid]
0 to 25%	> 75%	> 75%	C[C@H]1CC[C@H](C)N1c1cc(C(F)(F)F)ccc1CN1CCN(C(=O)n2ccc(C(=O)O)n2)CC1 [Example 360, 1-(4-(2-((2S,5S)-2,5-dimethylpyrrolidin-1-yl)-4-(trifluoromethyl)benzyl)piperazine-1-carbonyl)-1H-pyrazole-3-carboxylic acid]
0 to 25%	> 75%	> 75%	CN(Cc1cc(N2CCCC2)cc(C(F)(F)F)c1)C1(C)CCN(C(=O)n2ccc(C(=O)O)n2)CC1 [Example 381, 1-(4-methyl-4-(methyl(3-(pyrrolidin-1-yl)-5-(trifluoromethyl)benzyl)amino)piper-idine-1-carbonyl)-1H-pyrazole-3-carboxylic acid]
0 to 25%	> 75%	> 75%	CN(Cc1cccc(C(F)(F)F)c1N1CCCC1)C1(C)CCN(C(=O)n2ccc(C(=O)O)n2)CC1 [Example 382, 1-(4-methyl-4-(methyl(2-(pyrrolidin-1-yl)-3-(trifluoromethyl)benzyl)amino)piper-idine-1-carbonyl)-1H-pyrazole-3-carboxylic acid]
0 to 25%	> 75%	> 75%	CN(Cc1cc(C(F)(F)F)ccc1N1CCCC1)C1(C)CCN(C(=O)n2ccc(C(=O)O)n2)CC1 [Example 384, 1-(4-methyl-4-(methyl(2-(pyrrolidin-1-yl)-5-(trifluoromethyl)benzyl)amino)piper-idine-1-carbonyl)-1H-pyrazole-3-carboxylic acid]

The next lines start with the compound.

SMILES	inhibition at 5 mg/kg [1]	inhibition at 1 µM [2]	inhibition at 1 µM [3]
Cc1cc(-c2ccccc2)ccc1CN1CCN(C(=O)n2ccc(C(=O)O)n2)[C@H](C)C1 [Example 245, (R)-1-(2-methyl-4-((3-methyl-[1,1′-biphenyl]-4-yl)methyl)piperazine-1-carbonyl)-1H-pyrazole-3-carboxylic acid]	0 to 25%	> 75%	> 75%
Cc1ccc(Oc2cccc(CN3CCN(C(=O)n4ccc(C(=O)O)n4)CC3)c2)cc1 [Example 251, 1-(4-(3-(p-tolyloxy)benzyl)pi-perazine-1-carbonyl)-1H-pyrazole-3-carboxylic acid]	0 to 25%	> 75%	> 75%
Cc1cn(C(=O)N2C[C@H]3C[C@H](OCc4cc(F)cc(Cl)c4)C[C@H]3C2)nc1C(=O)O [Example 252, 1-(trans-5-((3-chloro-5-fluorobenzyl)oxy)octahydrocyclopenta [c]pyrrole-2-carbonyl)-4-methyl-1H-pyrazole-3-carboxylic acid]	0 to 25%	> 75%	> 75%
C[C@@H]1C[C@H](N(C)Cc2cccc(C(F)(F)F)c2)CCN1C(=O)n1ccc(C(N)=O)n1 [Example 257, 1-((2R,4R)-2-methyl-4-(methyl(3-(trifluoromethyl)benzyl)amino)piper-idine-1-carbonyl)-1H-pyrazole-3-carboxamide]	> 75%	> 75%	> 75%
C[C@@H]1C[C@@H](N(C)Cc2cccc(C(F)(F)F)c2)CCN1C(=O)n1ccc(C(N)=O)n1 [Example 260, 1-((2R,4S)-2-methyl-4-(methyl(3-(trifluoromethyl)benzyl)amino)piper-idine-1-carbonyl)-1H-pyrazole-3-carboxamide]	> 75%	> 75%	> 75%
O=C(O)c1ccn(C(=O)N2CCN(Cc3cc(Cl)cc(-c4cncnc4)c3)CC2)n1 [Example 269, 1-(4-(3-chloro-5-(pyrimidin-5-yl)benzyl)piperazine-1-carbonyl)-1H-pyrazole-3-carboxylic acid]	0 to 25%	> 75%	> 75%
C[C@@H]1CN(Cc2ccc(-c3ccccc3)cc2Cl)CCN1C(=O)n1ccc(C(=O)O)n1 [Example 291, (R)-1-(4-((3-chloro-[1,1′-biphenyl]-4-yl)methyl)-2-methylpiperazine-1-carbonyl)-1H-pyrazole-3-carboxylic acid]	25 to 50%	> 75%	> 75%
O=C(O)c1ccn(C(=O)N2CCC(Oc3ccc(C(F)(F)F)cc3N3CCCC3)CC2)n1 [Example 307, 1-(4-(2-(pyrrolidin-1-yl)-4-(trifluoromethyl)phenoxy)piperidine-1-carbonyl)-1H-pyrazole-3-carboxylic acid]	0 to 25%	> 75%	> 75%
